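In this assay, cells in 96-well plates receive the compound at five concentrations for 48 hours. Endpoints are linearly interpolated between the surrounding concentrations. Abbreviation: GI50, concentration required for 50% inhibition of growth.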 Activity calls are given as the source filed them. Rule as the data show it: active = GI50 up to about 1.1 µM and inactive = higher.
Tests used:
Test in all cases: growth of human tumour cells (NCI), 48 h
786-0 = system: 786-0
A498 = system: A498
A549 = system: A549
ACHN = system: ACHN
COLO 205 = system: COLO 205
DU-145 = system: DU-145
EKVX = system: EKVX
HCC 2998 = system: HCC 2998
HCT-116 = system: HCT-116
HCT-15 = system: HCT-15
HL-60 = system: HL-60
HOP-62 = system: HOP-62
HOP-92 = system: HOP-92
HT-29 = system: HT-29
IGROV-1 = system: IGROV-1
K562 = system: K562
KM12 = system: KM12
LOX IMVI = system: LOX IMVI
M14 = system: M14
MCF7 = system: MCF7
MDA-MB-435 = system: MDA-MB-435
MDA-N = system: MDA-N
Malme-3M = system: Malme-3M
NCI-H23 = system: NCI-H23
NCI-H460 = system: NCI-H460
NCI-H522 = system: NCI-H522
NCI/ADR-RES = system: NCI/ADR-RES
OVCAR-3 = system: OVCAR-3
OVCAR-4 = system: OVCAR-4
OVCAR-5 = system: OVCAR-5
OVCAR-8 = system: OVCAR-8
PC-3 = system: PC-3
SF-268 = system: SF-268
SF-295 = system: SF-295
SF-539 = system: SF-539
SK-MEL-28 = system: SK-MEL-28
SK-MEL-2 = system: SK-MEL-2
SK-MEL-5 = system: SK-MEL-5
SK-OV-3 = system: SK-OV-3
SN12C = system: SN12C
SNB-19 = system: SNB-19
SNB-75 = system: SNB-75
SR = system: SR
SW-620 = system: SW-620
T47D = system: T47D
TK-10 = system: TK-10
U-251 = system: U-251
UACC-257 = system: UACC-257
UACC-62 = system: UACC-62
CAKI-1 = system: CAKI-1
MDA-MB-231 = system: MDA-MB-231
MOLT-4 = system: MOLT-4
NCI-H226 = system: NCI-H226
RPMI-8226 = system: RPMI-8226
RXF 393 = system: RXF 393
UO-31 = system: UO-31
Hs-578T = system: Hs-578T

For `O=P1(O)C=CC2(CCCC2)O1`, the GI50 (786-0) was > 100 µM (inactive), the GI50 (A498) was > 100 µM (inactive) and the GI50 (A549) was > 100 µM (inactive). For the same compound, the GI50 (ACHN) was > 100 µM (inactive), the GI50 (COLO 205) was > 100 µM (inactive) and the GI50 (DU-145) was > 100 µM (inactive). For the same compound, the GI50 (EKVX) was > 100 µM (inactive), the GI50 (HCC 2998) was > 100 µM (inactive) and the GI50 (HCT-116) was > 100 µM (inactive). For the same compound, the GI50 (HCT-15) was over 100 µM, the GI50 (HL-60) was > 100 µM (inactive) and the GI50 (HOP-62) was > 100 µM (inactive). For the same compound, the GI50 (HOP-92) was > 100 µM (inactive), the GI50 (HT-29) was > 100 µM (inactive) and the GI50 (IGROV-1) was > 100 µM (inactive). For the same compound, the GI50 (K562) was > 100 µM (inactive), the GI50 (KM12) was > 100 µM (inactive) and the GI50 (LOX IMVI) was > 100 µM (inactive). For the same compound, the GI50 (M14) was > 100 µM (inactive), the GI50 (MCF7) was > 100 µM (inactive) and the GI50 (MDA-MB-435) was > 100 µM (inactive). The GI50 (MDA-N) was > 100 µM (inactive), the GI50 (Malme-3M) was > 100 µM (inactive) and the GI50 (NCI-H23) was > 100 µM (inactive). The GI50 (NCI-H460) was > 100 µM (inactive), the GI50 (NCI-H522) was > 100 µM (inactive) and the GI50 (NCI/ADR-RES) was > 100 µM (inactive). For the same compound, the GI50 (OVCAR-3) was > 100 µM (inactive), the GI50 (OVCAR-4) was > 100 µM (inactive) and the GI50 (OVCAR-5) was > 100 µM (inactive). For the same compound, the GI50 (OVCAR-8) was > 100 µM (inactive), the GI50 (PC-3) was > 100 µM (inactive) and the GI50 (SF-268) was > 100 µM (inactive). For the same compound, the GI50 (SF-295) was > 100 µM (inactive), the GI50 (SF-539) was > 100 µM (inactive) and the GI50 (SK-MEL-28) was > 100 µM (inactive). The GI50 (SK-MEL-2) was > 100 µM (inactive), the GI50 (SK-MEL-5) was > 100 µM (inactive) and the GI50 (SK-OV-3) was > 100 µM (inactive). For the same compound, the GI50 (SN12C) was > 100 µM (inactive), the GI50 (SNB-19) was > 100 µM (inactive) and the GI50 (SNB-75) was > 100 µM (inactive). For the same compound, the GI50 (SR) was > 100 µM (inactive), the GI50 (SW-620) was > 100 µM (inactive) and the GI50 (T47D) was > 100 µM (inactive). The GI50 (TK-10) was > 100 µM (inactive), the GI50 (U-251) was > 100 µM (inactive) and the GI50 (UACC-257) was > 100 µM (inactive). The GI50 (UACC-62) was > 100 µM (inactive).

For `CC(=O)c1c(-c2cccc3ccccc23)c(C#N)c(=S)n(C2OC(CO)C(O)C(O)C2O)c1-c1ccccc1` (stereo not drawn), the GI50 (EKVX) was 0.0509 µM (active) and the GI50 (HOP-92) was 13.5 µM (inactive).

For `NC1CC=C(COC(=O)C(O)(c2ccccc2)C2CC2)CC1` (stereo not drawn), the GI50 (786-0) was > 100 µM (inactive), the GI50 (A549) was > 100 µM (inactive) and the GI50 (ACHN) was > 100 µM (inactive). The GI50 (CAKI-1) was > 100 µM (inactive), the GI50 (COLO 205) was > 100 µM (inactive) and the GI50 (DU-145) was > 100 µM (inactive). For the same compound, the GI50 (EKVX) was > 100 µM (inactive), the GI50 (HCC 2998) was > 100 µM (inactive) and the GI50 (HCT-116) was > 100 µM (inactive). For the same compound, the GI50 (HCT-15) was over 100 µM, the GI50 (HOP-62) was > 100 µM (inactive) and the GI50 (HT-29) was > 100 µM (inactive). The GI50 (IGROV-1) was > 100 µM (inactive), the GI50 (KM12) was > 100 µM (inactive) and the GI50 (LOX IMVI) was > 100 µM (inactive). The GI50 (M14) was > 100 µM (inactive), the GI50 (MCF7) was > 100 µM (inactive) and the GI50 (MDA-MB-231) was > 100 µM (inactive). For the same compound, the GI50 (MDA-N) was > 100 µM (inactive), the GI50 (MOLT-4) was > 100 µM (inactive) and the GI50 (Malme-3M) was > 100 µM (inactive). The GI50 (NCI-H226) was > 100 µM (inactive), the GI50 (NCI-H23) was > 100 µM (inactive) and the GI50 (NCI-H522) was > 100 µM (inactive). For the same compound, the GI50 (NCI/ADR-RES) was > 100 µM (inactive), the GI50 (OVCAR-3) was > 100 µM (inactive) and the GI50 (OVCAR-5) was > 100 µM (inactive). For the same compound, the GI50 (OVCAR-8) was > 100 µM (inactive), the GI50 (PC-3) was > 100 µM (inactive) and the GI50 (RPMI-8226) was > 100 µM (inactive). For the same compound, the GI50 (RXF 393) was > 100 µM (inactive), the GI50 (SF-268) was > 100 µM (inactive) and the GI50 (SF-295) was > 100 µM (inactive). The GI50 (SF-539) was > 100 µM (inactive), the GI50 (SK-MEL-28) was > 100 µM (inactive) and the GI50 (SK-MEL-5) was > 100 µM (inactive). For the same compound, the GI50 (SK-OV-3) was > 100 µM (inactive), the GI50 (SN12C) was > 100 µM (inactive) and the GI50 (SNB-19) was > 100 µM (inactive). The GI50 (SNB-75) was > 100 µM (inactive), the GI50 (SR) was > 100 µM (inactive) and the GI50 (SW-620) was > 100 µM (inactive). For the same compound, the GI50 (T47D) was > 100 µM (inactive), the GI50 (TK-10) was > 100 µM (inactive) and the GI50 (U-251) was > 100 µM (inactive). For the same compound, the GI50 (UACC-257) was > 100 µM (inactive), the GI50 (UACC-62) was > 100 µM (inactive) and the GI50 (UO-31) was > 100 µM (inactive).

For `O=C1C=CC2C3C(=O)N(c4ccccc4)C(=O)C3C1N2Cc1ccccc1` (stereo not drawn), the GI50 (COLO 205) was 3.1 µM (inactive), the GI50 (HOP-62) was 3.72 µM (inactive) and the GI50 (Hs-578T) was 3.51 µM (inactive). For the same compound, the GI50 (NCI-H226) was 8.07 µM (inactive).

Reference: ChEMBL document CHEMBL1201862, “PubChem BioAssay data set” (2004)
